Results from US4373106A, “Sulfamoyl-substituted phenethylamine derivatives and process of producing them” (Yamanouchi Pharmaceutical Co., Ltd., priority 1980, dated 1983).
Read-outs that look alike come from different tables or passages of the source.

Assays:
α-adrenergic = experiment: α-Adrenergic blocking action: antagonism of the hypertensive response to phenylephrine in anesthetized, pentolinium-treated rats; type: in vivo; settings: Rattus norvegicus, iv, read-out: α-adrenergic blocking ED50
Experimental: A. α-Adrenergic blocking action:
The blood pressure was measured in the rats anesthetized with urethane and treated with pentolinium.

[1] = system: spontaneously hypertensive rats; experiment: Antihypertensive effects in spontaneously hypertensive rats, oral, tail cuff method; type: in vivo; settings: systolic blood pressure higher than 150 mmHg
Experimental: Oral administration: The systolic blood pressure was measured indirectly from the tail cuff method using a programmed electrosphygmanometer (Narco Bio-Systems Inc., PE-300) on spontaneously hypertensive rats having a systolic blood pressure higher than 150 mmHg, the results being shown in Table II.

α- and β-adrenergic = settings: as disclosed in British Pat. No. 2,006,772; cited from earlier work
[2] = rats anesthetized with urethane, treated with pentolinium, phenylephrine 10 μg/Kg i.v.

| SMILES | ED50 (α-adrenergic) [µg/kg] | Change in systolic blood pressure at stated dose p.o. ([1]; 10 mg/Kg p.o.) | ED50 (α-adrenergic; [2]) [µg/kg] | other results |
| --- | --- | --- | --- | --- |
| COc1ccccc1OCCNC(C)Cc1ccc(OC)c(S(N)(=O)=O)c1.Cl (centres unmarked) [Example 16, 2-Methoxy-5-{2-[2-(2-methoxyphenoxy)ethylamino]-2-methylethyl}benzenesulfonamide hydrochloride] | 0.8 | -71 ± 11.1 mmHg | – | – |
| CNS(=O)(=O)c1cc(CC(C)NCCOc2ccccc2OC)ccc1OC.Cl (centres unmarked) [Example 4, 2-methoxy-5-{2-[2-(2-methoxyphenoxy)ethylamino]-2-methylethyl}-N-methylbenzenesulfonamide hydrochloride] | 0.35 | – | – | – |
| Cc1ccc(N(CC2=NCCN2)c2cccc(O)c2)cc1 [Phentolamine, phentolamine, reference compound] | – | +7.8 ± 5.0 mmHg | 61 | Change in systolic blood pressure at stated dose p.o. ([1]; 100 mg/Kg p.o.): -70 ± 10.1 mmHg |
| COc1ccccc1OCCNCCc1ccc(O)c(S(N)(=O)=O)c1 [Example 15, 2-Hydroxy-5-{2-[2-(2-methoxyphenoxy)ethylamino]ethyl}benzenesulfonamide] | – | -54 ± 6.2 mmHg | 1.3 | – |
| CCOc1ccccc1OCCNCCc1ccc(C)c(S(N)(=O)=O)c1.Cl [Example 12, 5-{2-[2-(2-Ethoxyphenoxy)ethylamino]ethyl}-2-methylbenzenesulfonamide hydrochloride] | – | -48 ± 2.0 mmHg | 7.3 | – |
| COc1ccccc1OCCNC(C)Cc1ccc(C)c(S(N)(=O)=O)c1.Cl (centres unmarked) [Example 25, 5-{2-[2-(2-Methoxyphenoxy)ethylamino]-2-methylethyl}-2-methylbenzenesulfonamide hydrochloride] | 1.2 | -46 ± 3.6 mmHg | – | – |
| COc1ccccc1OCCNCCc1ccc(C)c(S(N)(=O)=O)c1.Cl [Example 11, 5-{2-[2-(2-Methoxyphenoxy)ethylamino]ethyl}-2-methylbenzenesulfonamide hydrochloride] | – | – | 12 | Change in systolic blood pressure at stated dose p.o. ([1]; 30 mg/Kg p.o.): -50 ± 4.7 mmHg |
| COc1ccccc1OCCNCC(O)c1ccc(C)c(S(N)(=O)=O)c1 (centres unmarked) [Compound A, 5-{1-hydroxy-2-[2-(2-methoxyphenoxy)ethylamino]ethyl}-2-methylbenzenesulfonamide, reference compound] | – | -35 ± 6.4 mmHg | 34 | α- and β-adrenergic blocking actions (α- and β-adrenergic): strong α- and β-adrenergic blocking actions |
| COc1ccccc1OCCNC(C)Cc1ccc(OC)c(S(=O)(=O)N(C)C)c1.Cl (centres unmarked) [Example 5, 2-Methoxy-5-{2-[2-(2-methoxyphenoxy)ethylamino]-2-methylethyl}-N,N-dimethylbenzenesulfonamide hydrochloride] | 0.26 | – | – | – |
| CCOc1ccccc1OCCNC(C)Cc1ccc(OC)c(S(N)(=O)=O)c1.Cl (centres unmarked) [Example 20, 5-{2-[2-(2-Ethoxyphenoxy)ethylamino]-2-methylethyl}-2-methoxybenzenesulfonamide hydrochloride] | – | – | – | Change in systolic blood pressure at stated dose p.o. ([1]; 3 mg/Kg p.o.): -57 ± 4.2 mmHg |
| CCC(Cc1ccc(C)c(S(N)(=O)=O)c1)NCCOc1ccccc1OC.Cl (centres unmarked) [Example 26, 5-{2-[2-(2-Methoxyphenoxy)ethylamino]-2-ethylethyl}-2-methylbenzenesulfonamide hydrochloride] | – | -46 ± 4.3 mmHg | 4 | – |
| COc1ccccc1OCCNCCc1ccc(OC)c(S(N)(=O)=O)c1.Cl [Example 10, 2-methoxy-5-{2-[2-(2-methoxyphenoxy)ethylamino]ethyl}benzenesulfonamide hydrochloride] | – | -57 ± 5.6 mmHg | 5.9 | – |
